Experimental data published in ChEMBL document CHEMBL3885861, “Open TG-GATES”.

Organism: Rattus norvegicus
Test: Open TG-GATES - Regimen: Single
Assay type: toxicity, organism-based, Sprague-Dawley
Parameters: regimen Single, gender Male, age 6 weeks
Details: in vivo, po, 10 mg/kg, route gavage, dose level Low; for APTT / Bas / Eos / Fbg / Hb / Ht / Lym / MCH / MCHC / MCV / Mono / Neu / PT / Plat / RBC / Ret / WBC: tissue Blood; for KIDNEY_L / KIDNEY_R / KIDNEY_TOTAL: tissue Kidney; for LIVER: tissue Liver; for A/G / ALP / ALT / AST / BUN / CRE / Ca / Cl / DBIL / GLC / IP / K / LDH / Na / PL / RALB / TBIL / TC / TG / TP / gamma-GTP: tissue Plasma

`CCN(CC)N=O` [N-NITROSODIETHYLAMINE] was tested, and the TERMINAL_BW (3 h) was 222.2 g, the APTT (3 h) was 18.5 s and the Bas (3 h) was 0.4%. It also gave an Eos (3 h) of 0.8%, a Fbg (3 h) of 221.2 mg/dL and a Hb (3 h) of 13.4 g/dL. For the same compound, the Ht (3 h) was 39.5%, the Lym (3 h) was 74.8% and the MCH (3 h) was 21.3 pg. For the same compound, the MCHC (3 h) was 33.9%, the MCV (3 h) was 62.8 fL and the Mono (3 h) was 2.2%. It also gave a Neu (3 h) of 21.2%, a PT (3 h) of 12.3 s and a Plat (3 h) of 120.1 x10_4/uL. It also gave an RBC (3 h) of 629.8 x10_4/ul, a Ret (3 h) of 7.4% and a WBC (3 h) of 85.8 x10_2/uL. The KIDNEY_L (3 h) was 1 g, the KIDNEY_R (3 h) was 1 g and the KIDNEY_TOTAL (3 h) was 2 g. It also gave an LIVER (3 h) of 9.3 g, an A/G (3 h) of 1.7 and an ALP (3 h) of 906.2 IU/L. The ALT (3 h) was 45 IU/L, the AST (3 h) was 74.4 IU/L and the BUN (3 h) was 10.8 mg/dL. It also gave a CRE (3 h) of 0.4 mg/dL, a Ca (3 h) of 10.2 mg/dL and a Cl (3 h) of 103 meq/L. It also gave a DBIL (3 h) of 0.062 mg/dL, a GLC (3 h) of 190.2 mg/dL and an IP (3 h) of 8.8 mg/dL. For the same compound, the K (3 h) was 3.6 meq/L, the LDH (3 h) was 194 IU/L and the Na (3 h) was 141.2 meq/L. It also gave a PL (3 h) of 123.4 mg/dL, an RALB (3 h) of 3.4 g/dL and a TBIL (3 h) of 0.1 mg/dL. For the same compound, the TC (3 h) was 77.4 mg/dL, the TG (3 h) was 34 mg/dL and the TP (3 h) was 5.4 g/dL. For the same compound, the gamma-GTP (3 h) was 1 IU/L, the TERMINAL_BW (6 h) was 226.2 g and the APTT (6 h) was 18.6 s. The Bas (6 h) was 0.6%, the Eos (6 h) was 1% and the Fbg (6 h) was 235 mg/dL. For the same compound, the Hb (6 h) was 13.3 g/dL, the Ht (6 h) was 39.1% and the Lym (6 h) was 78%. For the same compound, the MCH (6 h) was 20.7 pg, the MCHC (6 h) was 34% and the MCV (6 h) was 60.9 fL. For the same compound, the Mono (6 h) was 2.4%, the Neu (6 h) was 17.4% and the PT (6 h) was 12.1 s. For the same compound, the Plat (6 h) was 127.1 x10_4/uL, the RBC (6 h) was 642.4 x10_4/ul and the Ret (6 h) was 6.1%. The WBC (6 h) was 90.2 x10_2/uL, the KIDNEY_L (6 h) was 1 g and the KIDNEY_R (6 h) was 1 g. For the same compound, the KIDNEY_TOTAL (6 h) was 2 g, the LIVER (6 h) was 10.3 g and the A/G (6 h) was 1.5. The ALP (6 h) was 923.4 IU/L, the ALT (6 h) was 39 IU/L and the AST (6 h) was 69 IU/L. The BUN (6 h) was 14.2 mg/dL, the CRE (6 h) was 0.4 mg/dL and the Ca (6 h) was 10.4 mg/dL. The Cl (6 h) was 103.2 meq/L, the DBIL (6 h) was 0.078 mg/dL and the GLC (6 h) was 199.2 mg/dL. It also gave an IP (6 h) of 7.6 mg/dL, a K (6 h) of 3.7 meq/L and an LDH (6 h) of 220.8 IU/L. It also gave a Na (6 h) of 140.6 meq/L, a PL (6 h) of 144 mg/dL and an RALB (6 h) of 3.3 g/dL. The TBIL (6 h) was 0.1 mg/dL, the TC (6 h) was 81 mg/dL and the TG (6 h) was 62.6 mg/dL. It also gave a TP (6 h) of 5.6 g/dL, a gamma-GTP (6 h) of 1.2 IU/L and a TERMINAL_BW (9 h) of 226.3 g. It also gave an APTT (9 h) of 18.1 s, a Bas (9 h) of 0.8% and an Eos (9 h) of 1%. For the same compound, the Fbg (9 h) was 222.4 mg/dL, the Hb (9 h) was 14 g/dL and the Ht (9 h) was 40.2%. The Lym (9 h) was 80.6%, the MCH (9 h) was 21.7 pg and the MCHC (9 h) was 34.8%. The MCV (9 h) was 62.1 fL, the Mono (9 h) was 2.4% and the Neu (9 h) was 14.4%. For the same compound, the PT (9 h) was 12.2 s, the Plat (9 h) was 123.8 x10_4/uL and the RBC (9 h) was 647 x10_4/ul. For the same compound, the Ret (9 h) was 6.7%, the WBC (9 h) was 100.3 x10_2/uL and the KIDNEY_L (9 h) was 0.9 g. For the same compound, the KIDNEY_R (9 h) was 1 g, the KIDNEY_TOTAL (9 h) was 1.9 g and the LIVER (9 h) was 10.3 g. The A/G (9 h) was 1.6, the ALP (9 h) was 1025.2 IU/L and the ALT (9 h) was 38.6 IU/L. The AST (9 h) was 67.2 IU/L, the BUN (9 h) was 14.4 mg/dL and the CRE (9 h) was 0.4 mg/dL. It also gave a Ca (9 h) of 10.7 mg/dL, a Cl (9 h) of 103.2 meq/L and a DBIL (9 h) of 0.09 mg/dL. For the same compound, the GLC (9 h) was 188.4 mg/dL, the IP (9 h) was 8.3 mg/dL and the K (9 h) was 3.9 meq/L. It also gave an LDH (9 h) of 169.8 IU/L, a Na (9 h) of 141.4 meq/L and a PL (9 h) of 141.4 mg/dL. The RALB (9 h) was 3.5 g/dL, the TBIL (9 h) was 0.1 mg/dL and the TC (9 h) was 76 mg/dL. For the same compound, the TG (9 h) was 90.4 mg/dL, the TP (9 h) was 5.7 g/dL and the gamma-GTP (9 h) was 1.2 IU/L. It also gave a TERMINAL_BW (24 h) of 229.3 g, an APTT (24 h) of 19.1 s and a Bas (24 h) of 0.4%. It also gave an Eos (24 h) of 1%, a Fbg (24 h) of 235.6 mg/dL and a Hb (24 h) of 13.5 g/dL. The Ht (24 h) was 39.9%, the Lym (24 h) was 78.4% and the MCH (24 h) was 21.2 pg. The MCHC (24 h) was 33.9%, the MCV (24 h) was 62.5 fL and the Mono (24 h) was 3%. For the same compound, the Neu (24 h) was 16.6%, the PT (24 h) was 11.9 s and the Plat (24 h) was 124.7 x10_4/uL. It also gave an RBC (24 h) of 638.2 x10_4/ul, a Ret (24 h) of 6.6% and a WBC (24 h) of 79.1 x10_2/uL. For the same compound, the KIDNEY_L (24 h) was 1 g, the KIDNEY_R (24 h) was 1 g and the KIDNEY_TOTAL (24 h) was 2 g. The LIVER (24 h) was 10.1 g, the A/G (24 h) was 1.5 and the ALP (24 h) was 877 IU/L. It also gave an ALT (24 h) of 34.8 IU/L, an AST (24 h) of 64.4 IU/L and a BUN (24 h) of 14.4 mg/dL. The CRE (24 h) was 0.4 mg/dL, the Ca (24 h) was 10.7 mg/dL and the Cl (24 h) was 104.6 meq/L. The DBIL (24 h) was 0.086 mg/dL, the GLC (24 h) was 202.8 mg/dL and the IP (24 h) was 9.4 mg/dL. For the same compound, the K (24 h) was 4 meq/L, the LDH (24 h) was 208.6 IU/L and the Na (24 h) was 141.6 meq/L. For the same compound, the PL (24 h) was 142.6 mg/dL, the RALB (24 h) was 3.3 g/dL and the TBIL (24 h) was 0.1 mg/dL. For the same compound, the TC (24 h) was 73.8 mg/dL, the TG (24 h) was 86.4 mg/dL and the TP (24 h) was 5.5 g/dL. It also gave a gamma-GTP (24 h) of 1.4 IU/L.
